Non-standard residues stand in square brackets, D forms with d. Residues, ends and D or L forms follow the SMILES beside them. *: point of attachment. Dolaproine = CO[C@@H]([C@@H]1CCCN1)[C@@H](C)C(=O)O; Dil = CC[C@H](C)[C@H](NC)[C@@H](CC(=O)O)OC; X1 = C[C@@H](N*)[C@@H](O)c1ccccc1; NMeV = CN[C@H](C(=O)O)C(C)C
How the values were obtained:
[1] = test system: T-ALL (T-cell Acute Lymphoblastic Leukemia) and different types of solid tumors; conditions: cited from earlier work
[2] = test system: hematological malignancies and solid tumors; conditions: several hematological malignancies and solid tumors; cited from earlier work
lymphoid malignancies = conditions: cited from earlier work
lymphocyte proliferation = conditions: in vitro; cited from earlier work
arthritis and lupus = conditions: mice, animal models of arthritis and lupus; cited from earlier work
allogeneic T-cell = conditions: in vitro; cited from earlier work
[3] = test system: allogeneic T- and B-cell responses; conditions: after skin transplantation; cited from earlier work
AsPC-1 = assay: Pancreatic cancer cell line viability, single agent or 1:1 combination (CTG 120h), Example 10; format: cell-based; conditions: Homo sapiens, ASPC1, 120 h, AsPC-1, CTG 120 h
Protocol: (§1) Cell lines were cultured in the media described above at 37° C. in a humidified atmosphere containing 5% CO2. Cells were seeded in 96 well clear bottom plates (96 well clear-bottom, white, Corning reference 3903) and exposed to the mAbs or ADCs as single agents or in 1:1 combination with Paclitaxel, Trametinib or Gemcitabine. When in 1:1 combination, both the combining partner (Paclitaxel, Trametinib or Gemcitabine) and the mAb or ADC were serially diluted (9 concentrations each, triplicates). Effect on cell viability was assessed after 5 days of incubation at 37° C./5% CO2 by quantification of cellular ATP levels using CellTiter-Glo reagent (Promega Ref: G7571) at 75 μL reagent/well. All the conditions were tested in triplicates. Luminescence was quantified on a multipurpose plate reader. IC50s were calculated using standard four-parametric curve fitting. IC50 is defined as the compound concentration at which the CTG signal is reduced to 50% of that measured for the control. Two independent experiments were performed (N1 and N2).

BxPC-3 = assay: as above; format: cell-based; conditions: Homo sapiens, BXPC-3, 120 h, BxPC-3, CTG 120 h
Protocol: as §1

Hs766T = assay: as above; format: cell-based
Protocol: as §1

KP-4 = assay: as above; format: cell-based; conditions: Homo sapiens, KP-4, 120 h, KP-4, CTG 120 h
Protocol: as §1

Panc 10.05 = assay: as above; format: cell-based; conditions: Homo sapiens, Panc1005, 120 h, Panc 10.05, CTG 120 h
Protocol: as §1

[4] = test system: pancreatic cancer cell lines; assay: Pancreatic cancer cell line panel of Example 10 (CTG 120h); format: cell-based; conditions: pancreatic cancer cell lines of Table 16, single agents
Protocol: Cell lines were cultured in the media described above at 37° C. in a humidified atmosphere containing 5% CO2. […] When in 1:1 combination, both the combining partner (Paclitaxel, Trametinib or Gemcitabine) and the mAb or ADC were serially diluted (9 concentrations each, triplicates). Effect on cell viability was assessed after 5 days of incubation at 37° C./5% CO2 by quantification of cellular ATP levels using CellTiter-Glo reagent (Promega Ref: G7571) at 75 μL reagent/well. All the conditions were tested in triplicates. Luminescence was quantified on a multipurpose plate reader. IC50s were calculated using standard four-parametric curve fitting. […] Two independent experiments were performed (N1 and N2).

CALU1 = assay: Lung cancer cell line viability, single agent or 1:1 combination (CTG 120h), Example 7; format: cell-based; conditions: CALU1, CTG 120 h
Protocol: (§2) Cell lines were cultured in the media described above at 37° C. in a humidified atmosphere containing 5% CO2. Cells were seeded in 96 well clear bottom plates (96 well clear-bottom, white, Corning reference 3903) and exposed to the mAbs, mAbs mixture, ADCs or ADCs mixture as single agents or in 1:1 combination with Paclitaxel. When in 1:1 combination, both the combining partner (Paclitaxel) and the mAb, mAb mixture, ADC or ADC mixture were serially diluted (9 concentrations each, triplicates). Effect on cell viability was assessed after 5 days of incubation at 37° C./5% CO2 by quantification of cellular ATP levels using CellTiter-Glo reagent (Promega Ref: G7571) at 75 μL reagent/well. All the conditions were tested in triplicates. Luminescence was quantified on a multipurpose plate reader. IC50s were calculated using standard four-parametric curve fitting. IC50 is defined as the compound concentration at which the CTG signal is reduced to 50% of that measured for the control. Two independent experiments were performed (N1 and N2).

HCC366 = assay: as above; format: cell-based; conditions: HCC366, CTG 120 h
Protocol: as §2

HCC4006 = assay: as above; format: cell-based; conditions: HCC4006, CTG 120 h
Protocol: as §2

HCC78 = assay: as above; format: cell-based; conditions: HCC78, CTG 120 h
Protocol: as §2

HCC827 = assay: as above; format: cell-based; conditions: HCC827, CTG 120 h
Protocol: as §2

LU65 = assay: as above; format: cell-based; conditions: LU65, CTG 120 h
Protocol: as §2

NCI-H1838 = assay: as above; format: cell-based; conditions: NCI-H1838, CTG 120 h
Protocol: as §2

NCI-H1975 = assay: as above; format: cell-based; conditions: NCI-H1975, CTG 120 h
Protocol: as §2

NCI-H441 = assay: as above; format: cell-based; conditions: NCI-H441, CTG 120 h
Protocol: as §2

H1650 xenografts = assay: In vivo efficacy in combination with osimertinib in Met non amplified NCI-H1650 lung adenocarcinoma human cell model, Example 16; design: species or system SCID mice; conditions: osimertinib 15 mg/kg orally on day 1, 2, 3, 4, 7, 8, 9, alone
Source text: Below are the procedures for determining the in vivo therapeutic effect of different Bcl-xL ADCs targeting the Met protein as a single agent or in combination with osimertinib. Their activities are compared to the corresponding naked anti-Met mAbs or Ab G-L42C-P25 (Isotype control/non-targeting ADC) formulated in Phosphate-Buffered Saline (PBS) in a Met non amplified NCI-H1650 lung adenocarcinoma human cell line after intravenous (IV) administration.
NCI-H1650 cells, obtained from ATCC, were cultured in RPMI supplemented with 10% SBS, 1% Penicillin-Streptomycin and 1% HEPES. Cells were resuspended in 50% Matrigel® (Corning®) and 0.1 ml containing 10×10^6 cells were subcutaneously inoculated into the right flank of female SCID mice, provided by JANVIER labs.
When tumors reached the appropriate volume (100-200 mm3), mice were randomized, 6 animals per group, using Easy stat software. […]
Mice body weight was monitored 3 times a week and tumor size measured using electronic calipers. […] The last day with at least half of control animals still present in the study (d25), tumor growth inhibition was calculated using the formula: […]
With DTV (Delta Tumor Volume) at Dx, calculated being TV at Dx−TV at Randomization. […]

CN(C)CC#Cc1ccc(OCCCc2sc(N3CCc4cccc(C(=O)Nc5nc6ccccc6s5)c4C3)nc2C(=O)O)c(F)c1 [A-1155463]
in vivo activity in pre-clinical models [1]: exhibited in vivo activity

Cc1c(-c2ccc(N3CCc4cccc(C(=O)Nc5nc6ccccc6s5)c4C3)nc2C(=O)O)cnn1CC12CC3CC(CC(C3)C1)C2 [A-1331852]
in vivo activity in pre-clinical models [1]: exhibited in vivo activity

CC1(C)CCC(c2ccc(Cl)cc2)=C(CN2CCN(c3ccc(C(=O)NS(=O)(=O)c4ccc(N[C@H](CCN5CCOCC5)CSc5ccccc5)c(S(=O)(=O)C(F)(F)F)c4)cc3)CC2)C1 [ABT-263, navitoclax]
activity in pre-clinical models [2]: has shown activity
antitumor activity in clinical studies (lymphoid malignancies): objective antitumor activity

CN(C)CC[C@H](CSc1ccccc1)Nc1ccc(S(=O)(=O)NC(=O)c2ccc(N3CCN(Cc4ccccc4-c4ccc(Cl)cc4)CC3)cc2)cc1[N+](=O)[O-] [ABT-737]
inhibition of lymphocyte proliferation (lymphocyte proliferation): potent inhibition
disease severity (arthritis and lupus): significant decrease in disease severity
allogeneic T-cell activation, proliferation, and cytotoxicity (allogeneic T-cell): prevented
allogeneic T- and B-cell responses [3]: inhibited

Nc1ccn([C@@H]2O[C@H](CO)[C@@H](O)C2(F)F)c(=O)n1 [Gemcitabine, gemcitabine]
IC50 (AsPC-1; mean): 241 nM
IC50 (AsPC-1; n1): 406 nM
IC50 (AsPC-1; n2): 75.2 nM
IC50 (BxPC-3; mean): 13 nM
IC50 (BxPC-3; n1): 10.7 nM
IC50 (BxPC-3; n2): 15.3 nM
IC50 (Hs766T; mean): > 30000 nM
IC50 (Hs766T; n1): > 30000 nM
IC50 (Hs766T; n2): > 30000 nM
IC50 (KP-4; mean): 10.9 nM
IC50 (KP-4; n1): 9.74 nM
IC50 (KP-4; n2): 12 nM
IC50 (Panc 10.05; mean): 68.3 nM
IC50 (Panc 10.05; n1): 58.8 nM
IC50 (Panc 10.05; n2): 77.9 nM
effect on the viability [4]: induced dose dependent decrease in cell viability with measurable IC50 for most of the cell lines

CC[C@H](C)[C@@H]([C@@H](CC(=O)N1CCC[C@H]1[C@H](OC)[C@@H](C)C(=O)N[C@H](C)[C@@H](O)c1ccccc1)OC)N(C)C(=O)[C@@H](NC(=O)[C@@H](NC)C(C)C)C(C)C [MMAE, monomethyl auristatin E] (H-[NMeV]V[Dil][Dolaproine]-X1)
IC50 (CALU1; Mean): 1.01 nM
IC50 (CALU1; n1): 0.64 nM
IC50 (CALU1; n2): 1.37 nM
IC50 (HCC366; Mean): 0.645 nM
IC50 (HCC366; n1): 0.53 nM
IC50 (HCC366; n2): 0.76 nM
IC50 (HCC4006; Mean): 0.19 nM
IC50 (HCC4006; n1): 0.12 nM
IC50 (HCC4006; n2): 0.26 nM
IC50 (HCC78; Mean): 0.57 nM
IC50 (HCC78; n1): 0.54 nM
IC50 (HCC78; n2): 0.6 nM
IC50 (HCC827; Mean): 1.3 nM
IC50 (HCC827; n1): 1.46 nM
IC50 (HCC827; n2): 1.15 nM
IC50 (LU65; Mean): 0.83 nM
IC50 (LU65; n1): 0.7 nM
IC50 (LU65; n2): 0.96 nM
IC50 (NCI-H1838; Mean): 60.1 nM
IC50 (NCI-H1838; n1): 88.2 nM
IC50 (NCI-H1838; n2): 32 nM
IC50 (NCI-H1975; Mean): 0.25 nM
IC50 (NCI-H1975; n1): 0.25 nM
IC50 (NCI-H441; Mean): 0.38 nM
IC50 (NCI-H441; n1): 0.4 nM
IC50 (NCI-H441; n2): 0.36 nM

C=CC(=O)Nc1cc(Nc2nccc(-c3cn(C)c4ccccc34)n2)c(OC)cc1N(C)CCN(C)C [Osimertinib, osimertinib]
TGI % (d 25) (H1650 xenografts): 86.3%

CC(=O)Nc1cccc(-n2c(=O)n(C3CC3)c(=O)c3c(Nc4ccc(I)cc4F)n(C)c(=O)c(C)c32)c1 [Trametinib, N-(3-{3-cyclopropyl-5-[(2-fluoro-4-iodophenyl)amino]-6,8-dimethyl-2,4,7-trioxo-3,4,6,7-tetrahydropyrido[4,3-d]pyrimidin-1(2H)-yl}phenyl)acetamide]
IC50 (AsPC-1; mean): 9.81 nM
IC50 (AsPC-1; n1): 9.01 nM
IC50 (AsPC-1; n2): 10.6 nM
IC50 (BxPC-3; mean): 11.7 nM
IC50 (BxPC-3; n1): 8.21 nM
IC50 (BxPC-3; n2): 15.2 nM
IC50 (Hs766T; mean): 2.82 nM
IC50 (Hs766T; n1): 2.53 nM
IC50 (Hs766T; n2): 3.1 nM
IC50 (KP-4; mean): 1660 nM
IC50 (KP-4; n1): 620 nM
IC50 (KP-4; n2): 2710 nM
IC50 (Panc 10.05; mean): 57.5 nM
IC50 (Panc 10.05; n1): 32.4 nM
IC50 (Panc 10.05; n2): 82.6 nM
effect on the viability [4]: induced dose dependent decrease in cell viability with measurable IC50 for most of the cell lines

Source: patent US20250339547A1, “MET BCL-XL INHIBITOR ANTIBODY-DRUG CONJUGATES AND METHODS OF USE THEREOF” (Novartis AG, priority 2022, published 2025)
